Data reported in PubChem BioAssay AID248 (DTP/NCI, 2004).
Values joined by “and” are separate entries in the source; they are usually repeats but may differ in a detail not shown here. Equal entries are not always repeated. Toxic doses and inconclusive results are not listed. Cut-off read from the data, not from the text of the source: active = T/C of 150% or more; inactive = T/C below 125%.

System: L1210 leukemia ip in BDF1 mice, survival T/C
Test: NCI In Vivo Anticancer Drug Screen. Data for tumor model L1210 Leukemia (intraperitoneal) in B6D2F1 (BDF1) mice
Conditions: higher = longer survival
Outline: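 Antitumor effect is assessed in tumor-bearing animals. Survival in the compound arm is compared with a vehicle-dosed control arm and expressed as their quotient.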

[1] = endpoint: mean survival time, dose: 100.0 mg/kg/injection, schedule: Q01DX009 (ip), vehicle: Klucel (hydroxypropylcellulose) (HPC)
[2] = endpoint: mean survival time, dose: 100.0 mg/kg/injection, schedule: Q04DX003 (ip), vehicle: Klucel (hydroxypropylcellulose) (HPC)
[3] = endpoint: mean survival time, dose: 200.0 mg/kg/injection, schedule: Q01DX009 (ip), vehicle: Klucel (hydroxypropylcellulose) (HPC)
[4] = endpoint: mean survival time, dose: 200.0 mg/kg/injection, schedule: Q04DX003 (ip), vehicle: Klucel (hydroxypropylcellulose) (HPC)
[5] = endpoint: mean survival time, dose: 400.0 mg/kg/injection, schedule: Q04DX003 (ip), vehicle: Klucel (hydroxypropylcellulose) (HPC)
[6] = endpoint: mean survival time, dose: 400.0 mg/kg/injection, schedule: Q01DX009 (ip), vehicle: Klucel (hydroxypropylcellulose) (HPC)
[7] = endpoint: mean survival time, dose: 100.0 mg/kg/injection, schedule: Q01DX001 (ip), vehicle: saline
[8] = endpoint: mean survival time, dose: 200.0 mg/kg/injection, schedule: Q01DX001 (ip), vehicle: saline
[9] = endpoint: mean survival time, dose: 400.0 mg/kg/injection, schedule: Q01DX001 (ip), vehicle: saline

Measured: T/C

O=C(N[C@H](CO)[C@H](O)c1ccc([N+](=O)[O-])cc1)C(Cl)Cl
inactive: endpoint: mean survival time, dose: 316.0 mg/kg/injection, schedule: Q01DX001 (ip), vehicle: carboxymethylcellulose (CMC) 106 % of control | endpoint: mean survival time, dose: 475.0 mg/kg/injection, schedule: Q01DX001 (ip), vehicle: carboxymethylcellulose (CMC) 115 % of control | endpoint: mean survival time, dose: 720.0 mg/kg/injection, schedule: Q01DX001 (ip), vehicle: carboxymethylcellulose (CMC) 113 % of control | endpoint: median survival time, dose: 274.4 mg/kg/injection, schedule: Q01DX001 (ip), vehicle: saline 105 % of control | endpoint: median survival time, dose: 392.0 mg/kg/injection, schedule: Q01DX001 (ip), vehicle: saline 100 % of control and 101 % of control | endpoint: median survival time, dose: 560.0 mg/kg/injection, schedule: Q01DX001 (ip), vehicle: saline 93 % of control and 94 % of control and 95 % of control | endpoint: median survival time, dose: 560.0 mg/kg/injection, schedule: Q03DX001 (ip), vehicle: saline 88 % of control | endpoint: median survival time, dose: 800.0 mg/kg/injection, schedule: Q01DX001 (ip), vehicle: saline 99 % of control and 100 % of control and 102 % of control | endpoint: median survival time, dose: 800.0 mg/kg/injection, schedule: Q03DX001 (ip), vehicle: saline 100 % of control

CN=C(N)N/N=C/C(C)=N/NC(N)=NC
inactive: endpoint: mean survival time, dose: 15.0 mg/kg/injection, schedule: Q01DX Z (ip), vehicle: saline 96 % of control | endpoint: mean survival time, dose: 30.0 mg/kg/injection, schedule: Q01DX Z (ip), vehicle: saline 106 % of control | endpoint: mean survival time, dose: 60.0 mg/kg/injection, schedule: Q01DX Z (ip), vehicle: saline 104 % of control | endpoint: mean survival time, dose: 120.0 mg/kg/injection, schedule: Q01DX Z (ip), vehicle: saline 95 % of control

Cc1ccc(-n2ccnc2)c(N=Cc2ccc(N(CCCl)CCCl)cc2C)c1
inactive: endpoint: mean survival time, dose: 100.0 mg/kg/injection, schedule: Q04DX002 (ip), vehicle: Klucel (hydroxypropylcellulose) (HPC) 98 % of control | endpoint: mean survival time, dose: 200.0 mg/kg/injection, schedule: Q04DX002 (ip), vehicle: Klucel (hydroxypropylcellulose) (HPC) 102 % of control | endpoint: mean survival time, dose: 400.0 mg/kg/injection, schedule: Q04DX002 (ip), vehicle: Klucel (hydroxypropylcellulose) (HPC) 124 % of control

O=C(NCCc1ccccc1)C(Cl)Cl
inactive: endpoint: mean survival time, dose: 50.0 mg/kg/injection, schedule: Q01DX009 (ip), vehicle: Klucel (hydroxypropylcellulose) (HPC) 93 % of control | [1] 93 % of control | [2] 103 % of control | [3] 94 % of control | [4] 95 % of control | [5] 101 % of control

Cc1cc2oc(/C=N/O)c(C)c2cc1C
inactive: [1] 99 % of control | [3] 96 % of control | [6] 90 % of control

c1cc[n+](CC[n+]2ccccc2)cc1
inactive: [7] 97 % of control | [1] 100 % of control | endpoint: mean survival time, dose: 100.0 mg/kg/injection, schedule: Q01DX009 (ip), vehicle: saline 101 % of control | [2] 107 % of control | [8] 103 % of control | [3] 103 % of control | endpoint: mean survival time, dose: 200.0 mg/kg/injection, schedule: Q01DX009 (ip), vehicle: saline 93 % of control | [4] 101 % of control | [9] 94 % of control | [6] 91 % of control | endpoint: mean survival time, dose: 400.0 mg/kg/injection, schedule: Q01DX009 (ip), vehicle: saline 90 % of control | [5] 98 % of control

O=C1C2C3SC(c4nc5ccccc5cc43)C2C(=O)N1c1ccccc1 (stereo not drawn)
inactive: endpoint: mean survival time, dose: 400.0 mg/kg/injection, schedule: Q01DX001 (ip), vehicle: saline with Tween-80 91 % of control

CCOC(=O)NC(CC)c1ccc2oc3ccccc3c2c1 (stereo not drawn)
inactive: endpoint: mean survival time, dose: 100.0 mg/kg/injection, schedule: Q01DX001 (ip), vehicle: Klucel (hydroxypropylcellulose) (HPC) 98 % of control | [1] 90 % of control | endpoint: mean survival time, dose: 200.0 mg/kg/injection, schedule: Q01DX001 (ip), vehicle: Klucel (hydroxypropylcellulose) (HPC) 103 % of control | [3] 94 % of control | endpoint: mean survival time, dose: 400.0 mg/kg/injection, schedule: Q01DX001 (ip), vehicle: Klucel (hydroxypropylcellulose) (HPC) 108 % of control | [6] 95 % of control

Cc1ccc(NC(=S)N(CCC#N)C2CCCCC2)cc1
inactive: [1] 101 % of control | [3] 104 % of control | [6] 101 % of control

CCCCOB(/C=C/Sc1ccccc1)OCCCC
inactive: endpoint: mean survival time, dose: 100.0 mg/kg/injection, schedule: Q01DX009 (ip), vehicle: saline sonified 89 % of control | endpoint: mean survival time, dose: 100.0 mg/kg/injection, schedule: Q04DX003 (ip), vehicle: saline sonified 101 % of control | endpoint: mean survival time, dose: 200.0 mg/kg/injection, schedule: Q01DX009 (ip), vehicle: saline sonified 87 % of control | endpoint: mean survival time, dose: 200.0 mg/kg/injection, schedule: Q04DX003 (ip), vehicle: saline sonified 103 % of control | endpoint: mean survival time, dose: 400.0 mg/kg/injection, schedule: Q01DX009 (ip), vehicle: saline sonified 100 % of control | endpoint: mean survival time, dose: 400.0 mg/kg/injection, schedule: Q04DX003 (ip), vehicle: saline sonified 95 % of control

O=C(Nc1ccccc1F)OCCOc1ccc(-c2ccccc2)cc1
inactive: [1] 96 % of control | [3] 95 % of control | [6] 98 % of control

CC(=O)OC(C)(C)C1CCC2(C)COC3(C)CC(=O)OC23C1 (stereo not drawn)
inactive: endpoint: mean survival time, dose: 33.0 mg/kg/injection, schedule: Q04DX003 (ip), vehicle: saline 101 % of control | endpoint: mean survival time, dose: 66.0 mg/kg/injection, schedule: Q04DX003 (ip), vehicle: saline 101 % of control

CCOC(=O)c1ccc(NC(=S)Nc2ncccc2C)cc1
inactive: endpoint: mean survival time, dose: 100.0 mg/kg/injection, schedule: Q04DX002 (ip), vehicle: saline with Tween-80 103 % of control | endpoint: mean survival time, dose: 200.0 mg/kg/injection, schedule: Q04DX002 (ip), vehicle: saline with Tween-80 103 % of control | endpoint: mean survival time, dose: 400.0 mg/kg/injection, schedule: Q04DX002 (ip), vehicle: saline with Tween-80 95 % of control

CN1CCNC(=O)CC1
inactive: endpoint: mean survival time, dose: 25.0 mg/kg/injection, schedule: Q01DX009 (ip), vehicle: water 106 % of control | endpoint: mean survival time, dose: 50.0 mg/kg/injection, schedule: Q01DX009 (ip), vehicle: water 102 % of control | endpoint: mean survival time, dose: 100.0 mg/kg/injection, schedule: Q01DX009 (ip), vehicle: water 98 % of control | endpoint: mean survival time, dose: 200.0 mg/kg/injection, schedule: Q01DX009 (ip), vehicle: water 114 % of control

CCCOC(=O)CCOC
inactive: [7] 94 % of control | [8] 103 % of control | [9] 103 % of control

Cc1cc(C)[s+]s1
inactive: endpoint: mean survival time, dose: 12.5 mg/kg/injection, schedule: Q01DX009 (ip), vehicle: saline 94 % of control | endpoint: mean survival time, dose: 25.0 mg/kg/injection, schedule: Q01DX009 (ip), vehicle: saline 100 % of control | endpoint: mean survival time, dose: 50.0 mg/kg/injection, schedule: Q01DX009 (ip), vehicle: saline 103 % of control and 91 % of control | endpoint: mean survival time, dose: 100.0 mg/kg/injection, schedule: Q04DX003 (ip), vehicle: saline 106 % of control | endpoint: mean survival time, dose: 200.0 mg/kg/injection, schedule: Q04DX003 (ip), vehicle: saline 97 % of control
